For 81 compounds, RP-LC retention time results are on record in the METLIN SMRT retention time set (Domingo-Almenara et al. 2019).

The data set in a line: gradient 5% acetonitrile 3 min, to 50% in 2 min, to 85% in 15 min, held 3 min, 100 µL/min. The settings on record: column: Zorbax Extend-C18 2.1 x 50 mm; eluents: water / acetonitrile, 0.1% formic acid. In a few lines: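 The system's dead and dwell volumes were 40 μL and 900 μL, with a Zorbax Extend-C18 column (2.1 × 50 mm, 1.8 μm) run at 100 μL/min in water and acetonitrile containing 0.1% formic acid each. Pure standards were analyzed in mixtures of ~100 molecules by HPLC–quadrupole time-of-flight mass spectrometry in positive and negative ionization mode. Retention time was assigned from computationally picked, manually inspected adduct peaks.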
The compound `CC(C)n1cc(S(=O)(=O)N2CCN(c3ccccc3F)CC2)c2cccnc21` registered an RP-LC retention time of 1100 s. For `CCc1ccccc1NC(=O)Cn1c(C)nc2c(sc3nc(-c4ccccc4)ccc32)c1=O` the value was 1080 s.

`COC1CN(c2cccc(F)c2)C12CCN(S(=O)(=O)c1cccc3cccnc13)CC2` (stereo unspecified) returned an RP-LC retention time of 1110 s.

For the compound `CCOC(=O)CNC(=O)N1CCCC1c1cccc(C)c1` (stereo unspecified), the RP-LC retention time is 784 s. `COc1ccc(Cn2ccc3nc(C)c(C(=O)NCCc4c[nH]c5ccccc45)cc3c2=O)cc1` returned an RP-LC retention time of 807 s. `O=c1ccc(N2CCCN(S(=O)(=O)c3ccc(F)cc3F)CC2)nn1-c1ccccc1` came in with an RP-LC retention time of 842 s.

The compound `O=C(C1CCN(c2cncnc2N2CCOCC2)CC1)N1CCOCC1` gave an RP-LC retention time of 556 s.

With `CCCNC(=O)N(C)Cc1cccnc1OCC`, the RP-LC retention time worked out at 680 s. For `COc1cccc(N2CCN(c3nnc(-c4nnc(C)o4)c4ccccc34)CC2)c1` the value was 922 s. For `O=C(Cc1nnc(-c2ccc3ncccc3c2)o1)Nc1ccc(C(F)(F)F)cc1` the value was 827 s. With `COc1ccc(-c2noc(N3CCC(C(=O)Nc4cc(C)on4)CC3)n2)cc1OC`, the RP-LC retention time amounted to 784 s.

Turning to `Cn1cc(CCN2CCC(C(=O)NCc3cccc(F)c3)CC2)c2cccnc21`, the RP-LC retention time was determined as 599 s. `Cc1cc2oc3c(c(=O)c2cc1C)C(c1ccccc1F)N(c1nccs1)C3=O` (stereo unspecified): the RP-LC retention time is 1050 s. `CN(C)[C@@H]1CN(C(=O)CC2CCCCC2)CC[C@@H]1CO` registered an RP-LC retention time of 615 s. Turning to `O=C(COc1ccc(-c2nnc3n2CCCC3)cc1)NCc1ccc2c(c1)OCO2`, the RP-LC retention time is 662 s. For `Cc1cc(C)n(-c2cc(SCC(=O)NCc3ccco3)ncn2)n1` the value was 779 s; for `CCN1CCN(C(=O)c2cn(-c3ccc(-c4nc(C(C)(C)C)no4)cn3)cn2)CC1`, 653 s; for `CCn1cc(CCNC(=O)Nc2ccc(C)cc2C)c2cccnc21`, 705 s. For `Cc1cc(C)cc(C(=O)Nc2ccc(N3CCN(c4ccccc4)C3=O)nc2)c1` the value was 1050 s.

Regarding `CCC(=O)Nc1nc(-c2ccc3c(c2)NC(=O)CO3)c(C)s1`, the RP-LC retention time was 719 s. On to `CNC(=O)C1CCCN(c2nc3ncn(CC(=O)Nc4ccc(C(=O)OC)cc4)c(=O)c3s2)C1` (stereo unspecified), for which the RP-LC retention time was found to be 649 s. For `Cc1ccc(CC(=O)Nc2cnn(C)c(=O)c2N2CCOCC2)cc1` the value was 764 s; for `CCOC(=O)Cn1nc2ccc(S(=O)(=O)N3CCC(C)CC3)cn2c1=O`, 877 s. Turning to `O=C(Nc1cccnc1)N1CCC(Cc2cccc(Oc3ccc(C(F)(F)F)cn3)c2)CC1`, the RP-LC retention time worked out at 866 s.

In turn, `CC(C)CN1C(=O)c2cccn2CC1C(=O)NCC1CCCCC1` (stereo unspecified) displayed an RP-LC retention time of 828 s. For `CN(C)S(=O)(=O)c1ccc(C(=O)Nc2sc(-c3ccccc3)cc2C(N)=O)cc1` the value was 925 s; for `O=c1n(Cc2ccc(F)cc2)nc2c(S(=O)(=O)N3CCCC3)cccn12`, 806 s; for `Cc1c(C)n(-c2ccc(Cl)cc2)c2ncn(CC(=O)NCc3ccco3)c(=O)c12`, 868 s. For `Cc1ccc2nc3c(C(=O)O)cccn3c(=O)c2c1` the value was 677 s. Turning to `CCOc1ccccc1CNC(=O)CN1CCN(Cc2ccccc2)C1=O`, the RP-LC retention time worked out at 848 s.

In turn, `Cc1nc(S(=O)(=O)N2CCc3c(c(-c4nnc(-c5ccccc5F)o4)nn3C)C2)cn1C` displayed an RP-LC retention time of 703 s. For `COc1ccc(CNC2=NCCNC23CCN(S(=O)(=O)c2cc(C)c(C)cc2C)CC3)cc1` the value was 794 s. As for `CC(=O)Nc1ccc(C2(C(=O)NCc3cccc(C)c3)CCC2)cc1`, the RP-LC retention time stood at 773 s. Compound `NC(=O)c1ccc(OCC(O)CN2CC=C(c3ccc(F)cc3)CC2)cc1` (stereo unspecified) gave an RP-LC retention time of 512 s. For `COc1cccc(CNC(=O)C2=C3CCCN3c3ccc(Cl)cc3S2(=O)=O)c1` the value was 898 s. Regarding `Cn1ncc2c(N3CCSCC3)nc(C(=O)NCc3ccccn3)nc21`, the RP-LC retention time was 592 s. For `COc1ccc(NC(=O)Cn2nc3cc(-c4ccccc4)nc(C)n3c2=O)c(OC)c1`, the RP-LC retention time amounted to 918 s. Turning to `CCCNc1cc(N2CCC(CCC(=O)NCc3ccc(Cl)cc3)CC2)ncn1`, the RP-LC retention time is 718 s. `CCN1CCC(Nc2ccnc3cc(Cl)ccc23)CC1`: the RP-LC retention time worked out at 588 s.

`COc1ccc(CCNC(=O)c2cc(C3CC3)[nH]n2)cc1OC` came in with an RP-LC retention time of 690 s. For the compound `CC1(C(=O)NCc2ccc3c(c2)OCO3)CCN(C(=O)c2ccccc2C(F)(F)F)CC1`, the RP-LC retention time came to 822 s. For `O=C(Nc1ccccc1F)N1C[C@H]2C[C@H](C1)[C@H]1CCCC(=O)N1C2` the value was 627 s; for `Cc1ccc(S(=O)(=O)N2CCC(c3cc(N)on3)CC2)cc1`, 789 s. For `O=C1NC(=O)C2(CCc3ccccc32)N1` (stereo unspecified) the value was 670 s.

As for `O=C(Nc1ccccc1[N+](=O)[O-])C(=O)N1CCN(Cc2ccc3c(c2)OCO3)CC1`, the RP-LC retention time stood at 592 s. Compound `COc1ccccc1N1CCN(S(=O)(=O)c2cc(-c3nnc(C4CCC4)o3)co2)CC1` registered an RP-LC retention time of 1020 s. `CN1C(=O)Cc2cc(C(=O)N3CCN(c4ccccc4Cl)CC3)ccc21` came in with an RP-LC retention time of 825 s. For `O=C1CCC2(CCN1)CCN(C(=O)C1CCCCC1)CC2` the value was 669 s; for `CCCc1noc(-c2ccc(-n3ncc(C(=O)NCC)c3C)nc2)n1`, 808 s; for `COCc1ncc(C)n1C1CCN(C(=O)c2noc(C)c2Cc2c(C)noc2C)C1` (stereo unspecified), 617 s. For `Cc1noc(-c2ccc(OC3CN(C(=O)c4ccco4)C3)cc2)n1` the value was 789 s. Take `O=C(C1CCN(c2nnc(-c3ccccc3)o2)CC1)N1CCOCC1`: the RP-LC retention time came to 668 s. Compound `COC(=O)c1ccccc1NC(=O)Cn1c(=O)c(CCC(=O)NC2CCCC2)nc2ccccc21` gave an RP-LC retention time of 898 s. In turn, `CC(C)(C)NC(=O)NC1CCN(C(=O)C2CCCC2)C1` (stereo unspecified) registered an RP-LC retention time of 678 s. `Cn1cnc(S(=O)(=O)N2CC(c3nc(-c4ccncc4)no3)C2)c1` came in with an RP-LC retention time of 590 s.

Compound `COc1ccc2c(c1)C1(CCN(C(=O)c3cccc(Br)c3)C1)C(=O)N2C` (stereo unspecified) showed an RP-LC retention time of 845 s. On to `CCN(CC)c1ncc2c(n1)CCC(C(=O)Nc1ccc(OC)cc1OC)C2` (stereo unspecified), for which the RP-LC retention time was 726 s. For `CCOC(=O)c1nc(SC)n(C)c1C(=O)OCC` the value was 834 s; for `CNC(=O)c1ccc(-c2nc3cc(NS(=O)(=O)c4cc(Cl)ccc4OC)ccc3n2C)cc1`, 671 s; for `O=C(NCCN1CCCC1)c1cc2n(n1)CCCN(Cc1ccc(Cl)cc1)C2=O`, 627 s. For `Cc1cc(Cl)ccc1NC(=O)N1CCC2(CC1)c1nccn1CCN2C` the value was 612 s; for `CCCC(=O)N1CCc2c([nH]c3ccccc23)C1c1ccc(OCC)cc1` (stereo unspecified), 1140 s. For `CCCNC(=O)C1CCN(c2ccc(SCC(=O)Nc3ccc4c(c3)OCO4)nn2)CC1` the value was 610 s; for `COc1ccc(OC)c(NC(=O)N2CCc3c(c(C(=O)N4CCCC4)nn3C)C2)c1`, 718 s.

Compound `CC(C)CNC(=O)N1CC(c2nc(-c3ccccc3)no2)C2(CCOCC2)C1` (stereo unspecified) registered an RP-LC retention time of 858 s. For `Cc1ccc(F)cc1S(=O)(=O)N(C)CC1CCOC1` (stereo unspecified), the RP-LC retention time was determined as 836 s. Compound `Cc1noc(C)c1Cc1ccc(C(=O)NCC23CCCC=C2NC(=O)CC3)o1` (stereo unspecified) yielded an RP-LC retention time of 705 s. For `C(#Cc1ccccc1)CN1CCN(CC#Cc2ccccc2)CC1` the value was 616 s; for `CC(C)C(=O)Nc1ccc(-n2cnc(C(=O)NCC3CCCO3)c2)nc1` (stereo unspecified), 647 s; for `COc1ccccc1-c1nnc(N)s1`, 598 s. For `CCCn1c(=O)c(C)nc2cc(-c3noc(C4CC(=O)N(c5ccccc5)C4)n3)ccc21` (stereo unspecified) the value was 895 s; for `CCC1Oc2ccc(S(=O)(=O)N3CCC(C(=O)NC4CCC(C)CC4)CC3)cc2NC1=O` (stereo unspecified), 904 s. For `O=C(c1cccnc1)N1CCC(Oc2cc(N3CCCCC3)ncn2)C1` (stereo unspecified) the value was 651 s; for `Cc1ccccc1CNC(=O)c1cc2n(n1)CCCC2`, 811 s; for `CC(=O)c1ccc(NC(=O)c2[nH]c3cc(C)sc3c2CN2CCCC2)cc1`, 665 s. Compound `O=C(Nc1nnc(C2CC(=O)N(c3ccc(F)cc3)C2)o1)c1ccccc1Cl` (stereo unspecified) returned an RP-LC retention time of 712 s.

As for `Cc1cc(Cl)ccc1S(=O)(=O)N1CCC(OC2CCN(c3ccccc3)C2=O)CC1` (stereo unspecified), the RP-LC retention time amounted to 1080 s. `COc1ccc(N2C(=O)CCC(C(=O)N3CCOCC3)C2c2ccc(OC)c(OC)c2)cc1` (stereo unspecified) had an RP-LC retention time of 619 s. For `Cc1oc(-c2[nH]ncc2C(=O)N2CCOCC2)cc1S(=O)(=O)NC1CC1` the value was 607 s; for `CC(NC(=O)C1CCN(c2cncnc2N2CCCC2)CC1)c1ccc(F)cc1` (stereo unspecified), 648 s. For `COc1ccc(Cn2nnc3cc(C(=O)Nc4cc(C)on4)ccc32)cc1` the value was 817 s.
